Reference: PubChem BioAssay (NCI)
Values joined by “and” are separate entries in the source; they are usually repeats but may differ in a detail not shown here. Equal values may be shown once.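 All cell lines were grown in 96-well plates and treated with compound for 48 hours. GI50 = concentration required for 50% inhibition of growth. Definition used: TGI = concentration required for complete inhibition of growth.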

Assays:
Experiment in all cases: NCI-60 cell line screen, 48 h
[1] = tested on: DMS 273 small cell lung
[2] = tested on: LXFL 529 NSCLC
[3] = tested on: RXF-631 renal
[4] = tested on: DMS 114 small cell lung
[5] = tested on: XF 498 CNS
[6] = tested on: BT-549 breast
[7] = tested on: KM20L2 colon
[8] = tested on: HOP-18 NSCLC
[9] = tested on: MDA-N

Compound | TGI [2] [µM] | GI50 [6] | TGI [6] | TGI [7] [µM] | further results
COC12CCC(C(C(=O)c3ccccc3)=C1C(=O)c1ccccc1)C(O)C2 (stereo not given) | > 100 |  |  |  | TGI [1]: > 100 µM; TGI [3]: > 100 µM; TGI [4]: > 100 µM; TGI [5]: > 100 µM
CCNNC(=O)[C@@H]1[C@H](c2cc(OC)c(OC)c(OC)c2)c2cc3c(cc2[C@H](O)[C@H]1CO)OCO3 |  | 0.413 µM |  |  | 
COc1cc(/C=C\c2ccc(Br)cc2)cc(OC)c1OC | > 100 |  |  |  | TGI [1]: 13.8 µM; TGI [3]: > 100 µM; TGI [4]: 69.1 µM
Cc1cc(N(CCCNc2ccnc3cc(Cl)ccc23)Cc2ccc3c(c2)OCO3)nc(N2CCCCC2)n1 |  | 2.28 µM | 5.95 µM |  | 
CC(NC(=O)C(=O)N/N=C1\C[C@@H](c2ccccc2)Nc2ccccc21)c1ccccc1 (stereo not given in full) | > 100 |  |  | > 100 | TGI [1]: > 100 µM; TGI [4]: > 100 µM; TGI [5]: > 100 µM
Cn1cnc2c(F)c(Nc3ccc(Br)cc3F)c(C(=O)NOCCO)cc21 |  | > 60.2 µM | > 100 µM |  | 
O=C1C(=O)N(c2nccs2)C(=O)C(=O)C1c1nc2ccccc2s1 | > 100 |  |  | > 100 | TGI [1]: > 100 µM; TGI [4]: > 100 µM; TGI [8]: > 100 µM; TGI [5]: > 100 µM
FC(F)(F)c1cccc2c(SCCc3n[nH]c(=S)o3)ccnc12 |  | 30 µM | > 100 µM |  | 
CN1C[C@@H]2Cn3c(c(C4=C(c5cn(C)c6ccccc56)C(=O)NC4=O)c4ccccc43)C[C@H]2C1 |  | 4.51 µM and 4.36 µM | 8.4 µM and 8.59 µM |  | 
CC(C)C(=O)[O-].CC(C)C(=O)[O-].N.N.N.N.[Co+3].[O-][Cl+3]([O-])([O-])[O-] | > 100 |  |  | > 100 | GI50 [1]: > 100 µM; TGI [1]: > 100 µM; GI50 [2]: > 100 µM; GI50 [7]: > 100 µM
O=C(N/C(=C\c1ccc(/C=C(\NC(=O)c2ccccc2)c2nc3ccccc3s2)cc1)c1nc2ccccc2s1)c1ccccc1 | 10.9 |  |  | 11.2 | TGI [1]: 10.8 µM; TGI [3]: 20.6 µM; TGI [4]: 25.9 µM; TGI [8]: 26 µM
Cc1ccc(Nc2cc(C)nc(NCCCNc3ccnc4cc(Cl)ccc34)n2)cc1 |  | 1.63 µM | 3.4 µM |  | 
O=C(N/N=C/c1ccc(Cl)cc1Cl)c1ccc2nc(-c3ccc(Cl)cc3)[nH]c2c1 |  | 4.93 µM | 21.3 µM |  | 
OCC(CCc1c[nH]c2ccccc12)c1c[nH]c2ccccc12 (stereo not given) |  |  | 30.5 µM |  | TGI [9]: 31 µM
COc1cc2c3c(n(CCCBr)c(=O)c2cc1OC)-c1ccc(F)cc1C3=O |  | 13.9 µM | 49.7 µM |  | 
CC(=O)OC1CCC2C(=CCC3C2(C)C(=O)CC2(C)C(C4(C)OC(C(C)C)=CC4=O)C(O)CC32C)C1(C)C (stereo not given) | 92.1 |  |  | 51.4 | TGI [1]: 58.3 µM; TGI [4]: 57.8 µM; TGI [5]: > 100 µM
CC(C)CC12CC3CCC(CNC1=O)C32C (stereo not given) | > 100 |  |  |  | TGI [1]: > 100 µM; TGI [4]: > 100 µM; TGI [8]: > 100 µM; TGI [5]: > 100 µM
Cc1cnccc1N=Nc1ccc(N(C)C)cc1 |  |  | 49.3 µM |  | TGI [9]: 69.3 µM
COC(=O)[C@H](C)NC(=O)[C@@H](OC)[C@@H]1Cc2cc3cc(OC4CC(OC5CC(O)C(O)C(C)O5)C(O)C(C)O4)c(C)c(O)c3c(O)c2C(=O)[C@H]1OC1CC(OC2CC(OC3CC(C)(O)C(O)C(C)O3)C(O)C(C)O2)C(O)C(C)O1 (stereo not given in full) |  | 0.0881 µM | 1.2 µM |  | 
CC1(C(=O)O)CCOc2ccccc21 (stereo not given) | > 100 |  |  | > 100 | TGI [4]: > 100 µM; TGI [8]: > 100 µM
CC(C)C[C@H](NC(=O)[C@H](Cc1cccc2ccccc12)NS(=O)(=O)c1cccc2cccnc12)B(O)O |  | 0.000863 µM | 0.0395 µM |  | 

Compound | TGI [2] [µM] | GI50 [6] | TGI [6] | TGI [7] [µM] | further results
CCOC(=O)c1ccc(N2C(=O)Cc3ccccc3C2=O)cc1 | > 100 |  |  | > 100 | TGI [1]: > 100 µM; TGI [4]: > 100 µM
CS/C(c1ccccc1)=[N+](\[O-])Cc1ccccc1 | > 100 |  |  | > 100 | TGI [4]: > 100 µM; TGI [8]: > 100 µM; TGI [5]: > 100 µM
COc1cc(C2CC(=O)Nc3c2ccc2ccccc32)cc(Br)c1OC (stereo not given) |  | 0.384 µM | 17.5 µM |  | 
CCOC(=O)C(C(=O)OCC)C(=O)c1ccccc1C(=O)c1ccccc1 |  |  | > 100 µM |  | 
C=C1C(OC/C=C/COC2O[C@@H]3O[C@@]4(C)CC[C@H]5[C@H](C)CC[C@@H](C2=C)[C@@]35OO4)O[C@@H]2O[C@@]3(C)CC[C@H]4[C@H](C)CC[C@@H]1[C@@]24OO3 (stereo not given in full) |  | 3.07 µM | 41.1 µM |  | 
O=c1oc2c3ccc4cnccc4c3[nH]c2c2ccccc12 |  | 14.2 µM | 29.2 µM |  | 
COc1ccc(-c2cc(-c3cccc(NS(C)(=O)=O)c3)nc(N)c2C#N)cc1 |  | 0.127 µM | 12.3 µM |  | 
COc1ccc(-c2ccc(-c3ccc(C(=N)N)cn3)o2)cc1Cl |  | 1.75 µM | 3.21 µM |  | 
C=C(CNC(=O)c1ccccc1)c1ccc(C(=O)Nc2ccccc2N)cc1 |  | 19.6 µM | > 100 µM |  | 
CCOC(=O)C1=C(Nc2ccc(Br)cc2)OC/C1=N\NC(=O)c1ccccc1O | > 100 |  |  | > 100 | TGI [1]: 17 µM; TGI [8]: > 100 µM
CCCCn1c2ccccc2c2ccc3c(c21)C(=O)C=CC3=O | > 100 |  |  | > 100 | TGI [1]: > 100 µM; TGI [4]: > 100 µM; TGI [8]: > 100 µM
O=c1cccccc1[O-].O=c1cccccc1[O-].O=c1cccccc1[O-].[Ce+3] |  |  |  | > 100 | GI50 [1]: 11.4 µM; TGI [1]: > 100 µM; GI50 [7]: 24.1 µM
CCOc1nccc2c1nc(-c1nonc1N)n2CC |  | > 25 µM | > 25 µM |  | 
CSc1ccc(SC2c3ccc(C)cc3Oc3nc(N)c(C#N)c(N)c32)cc1 (stereo not given) |  | 1.53 µM | 2.87 µM |  | 
Cc1ccc(C2=C(c3ccc(C)cc3)C(c3ccc(C)cc3)=C(c3ccc(C)cc3)C2=O)cc1 | > 100 |  |  | > 100 | TGI [3]: > 100 µM; TGI [8]: > 100 µM; TGI [5]: > 100 µM
O=C(CCSc1ccnc2c(C(F)(F)F)cccc12)N/N=C/c1cc(Cl)c(Cl)cc1Cl |  | 18 µM | 38.9 µM |  | 
NCCCN1CCN(CCCNc2nc3ccccc3c3[nH]c4ccccc4c23)CC1 |  | 2.12 µM | 5.72 µM |  | 
COc1ccc(Cn2cc3c(c2-c2cc(OC)c(OC)c(OC)c2)CCc2cnoc2-3)cc1N |  | 0.173 µM | > 100 µM |  | 
CCC1(NC(=O)c2cc(F)c(F)c(F)c2F)C(=O)NC(=O)N(C(C)C)C1=O (stereo not given) |  | 20 µM | 44.1 µM |  | 
CCOC(=O)N1C(c2ccccc2)C=CC(c2ccccc2)N1C(=O)OCC (stereo not given) |  |  |  | > 100 | TGI [4]: > 100 µM; TGI [8]: > 100 µM; TGI [5]: > 100 µM
